Read-outs that look alike come from different tables or passages of the source.
Tests used:
[1] = test system: inflammation in certain cell-based models; conditions: cited from earlier work
[2] = test system: Interleukin 6 (IL-6) secretion in C2C12 cells; assay: IL-6 secretion (ELISA) of differentiated C2C12 cells exposed to pro-inflammatory cytokine mix (cytomix); assay type: cell-based
Procedure: C2C12 Myoblasts, purchased from the American Type Culture Collection (ATCC) (ref. CRL-1772), were seeded at 8000 cells per well in a 96 well plate (Greiner, Kremsmünster, Austria) using a DMEM Glutamax 4.5 g D-glucose (Gibco, ref 31966021) supplemented with foetal bovine serum (FBS) 10% (PanBiotech, ref P190902), 1% PenStrep (Biowest) and 1% HEPES (Biowest). Cells were then differentiated for 6 days using a differentiation medium (DMEM Glutamax 4.5 g D-glucose (Gibco, ref 31966021), 2% Horse serum (Thermofisher, ref 160501229) 1% PenStrep and 1% HEPES). All the media were sterilized with a 0.45 μm filter unit (VWR). […] The medium was collected and an ELISA for Interleukin-6 were performed following the instruction provided by the supplier (Proteintech ref. KE10007). Finally, the absorbance at a wavelength of 450 nm was measured using a microplate plate reader (Fluostar Optima, BMG Labtech).

Structure (SMILES): CC(O)CC(=O)[O-].[Na+] (racemic) [BHB, DL-β-Hydroxybutyric acid sodium salt]
- concentration at which the anti-inflammatory effect of BHB was observed ([1]; PMC6402511): > 250 µM
- concentration at which the anti-inflammatory effect of BHB was observed ([1]; PMID: 25686106): above 2 mM
- impact on IL-6 secretion ([2]; BHB 5 μM alone, cytomix): −0.007%
- reduction of IL-6 secretion ([2]; higher dose of BHB alone, cytomix): 32%

Structure (SMILES): O=c1oc2cc(O)ccc2c2ccc(O)cc12 [Urolithin A]
- reduction of IL-6 secretion ([2]; UA 6.25 μM alone, 24 h pre-treatment then cytomix 24 h): 25%
- reduction of IL-6 secretion ([2]; UA 12.5 μM alone, 24 h pre-treatment then cytomix 24 h): 60%
